In ChEMBL document CHEMBL1149051, “Isolation of flavins from the Amazonian shrub Faramea guianesis” (1994):

What was measured:
Type in all cases: functional
[1] = test system: Leishmania amazonensis; test: Antileishmanial activity against Leishmania amazonensis H142 Guianese amastigotes in BALB/c mouse macrophages assessed as inhibition of infection at 0.02 mg/ml relative to control
[2] = test system: Leishmania amazonensis; test: Antileishmanial activity against Leishmania amazonensis H142 Guianese amastigotes in BALB/c mouse macrophages assessed as survival of peritoneal macrophages at 0.25 mg/ml relative to control
[3] = test system: Leishmania amazonensis; test: Antileishmanial activity against Leishmania amazonensis H142 Guianese amastigotes in BALB/c mouse macrophages assessed as inhibition of infection at 0.05 mg/ml relative to control
[4] = test system: Leishmania amazonensis; test: Antileishmanial activity against Leishmania amazonensis H142 Guianese amastigotes in BALB/c mouse macrophages assessed as inhibition of infection at 0.04 mg/ml relative to control

`Oc1ccc(C2CCc3c(O)cc(O)cc3O2)cc1` (centres undefined) gave an inhibition at 20 µg/mL [1] of 100%, a survival at 250 µg/mL [2] of 0% and an inhibition at 50 µg/mL [3] of 57%. For the same compound, the inhibition at 40 µg/mL [4] was 100%.
